Laboratory results as given in patent US20130309202A1, “Methods for Improving Liver Function” (The Ohio State University, priority 2012, published 2013).
“And” between values parts separate entries of the source, which are not always exact repeats. Equal values may be shown once. Read-outs that look alike come from different tables or passages of the source. Values belong to the compound of their own block, whether it stands above or below them.

Experiments:
[1] = human, in vivo
[2] = human, in vivo; remark: listed apart in the source
[3] = human, in vivo; remark: listed apart in the source
[4] = system: end stage liver disease (ESLD) patients; assay: Model for End-Stage Liver Disease (MELD) score analysis in supplemented patients awaiting liver transplantation; assay type: in vivo, human
Excerpt: Vital organs for study included: cardiac muscle acquired from heart transplant recipients with end stage heart failure (TCP n=3, TE n=5); liver from transplant recipients with end-stage liver (TCP n=3, TE n=4); adipose acquired from abdominal adipose tissue of morbidly obese patients undergoing reconstructive plastic surgery (TCP n=4, TE n=5); and brain tissue from recalcitrant epilepsy patients requiring resection (TE n=4). Control brain samples were taken from autopsy participants donated to science and represent vitamin E concentrations of the general population, without dietary TE consumption (n=4). […] TCP gel capsules contained 200 mg of d-alpha-tocopherol. Vitamin E gel capsules were sealed in blister packs. To determine compliance, study participants mailed empty packages back to the clinic every two weeks. Participant supplementation compliance for the study was >90%. Random-effects linear regression was used to estimate the individual slope and intercepts of the MELD score pre- and post-supplementation for each subject. This was performed separately for TCP and TE supplementation groups. Random-effects regression takes into account the variability within participants due to repeated measures and the variability between participants in order to estimate the standard error. Due to the serendipitous nature of the MELD score findings the length of supplementation was not standardized between patients awaiting liver transplantation. The time scale is in days relative to beginning of the patient's vitamin E supplementation. […] The percent change in the slope from pre- to post-supplementation was calculated. Summary statistics are presented for pre- and post-slope and the percent change across TE and TCP supplementation groups. Wilcoxon rank-sum was used to test differences in slope and percent change in slope between TCP and TE. Wilcoxon signed-rank test was used to compare pre- to post-supplementation.

[5] = Brain vitamin E concentration, Surgical Patients Group; conditions: for Brain vitamin E concentration, 25th percentile / Brain vitamin E concentration, 50th percentile / Brain vitamin E concentration, 75th percentile / Brain vitamin E concentration, mean: n = 4
[6] = Liver vitamin E concentration, Surgical Patients Group
[7] = Abdominal adipose vitamin E concentration, Surgical Patients Group; conditions: for Adipose vitamin E concentration, 25th percentile / Adipose vitamin E concentration, 50th percentile / Adipose vitamin E concentration, 75th percentile / Adipose vitamin E concentration, mean: 400 mg daily oral
[8] = Heart (cardiac muscle) vitamin E concentration, Surgical Patients Group; conditions: for Heart vitamin E concentration, 25th percentile / Heart vitamin E concentration, 50th percentile / Heart vitamin E concentration, 75th percentile / Heart vitamin E concentration, mean: 400 mg daily oral
[9] = Skin biopsy vitamin E concentration following oral TE supplementation, Healthy Participants Group; conditions: TE 400 mg daily, 12 wk vs baseline
[10] = target: T1, Tocopherol transfer protein (TTP) (Homo sapiens, UniProt P49638); conditions: background statement; cited from earlier work
T1 sequence (P49638 1-278): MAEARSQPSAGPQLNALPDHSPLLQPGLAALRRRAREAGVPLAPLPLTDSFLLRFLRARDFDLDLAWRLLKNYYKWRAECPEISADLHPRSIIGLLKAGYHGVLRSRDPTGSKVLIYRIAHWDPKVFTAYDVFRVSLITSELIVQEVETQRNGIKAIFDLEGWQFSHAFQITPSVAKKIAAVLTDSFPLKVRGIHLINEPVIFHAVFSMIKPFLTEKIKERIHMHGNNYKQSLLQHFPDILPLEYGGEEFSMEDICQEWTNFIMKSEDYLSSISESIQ

HMG-CoA reductase = target: T2, HMG-CoA reductase (Homo sapiens, UniProt P04035); conditions: hepatic enzyme responsible for cholesterol synthesis; background statement; cited from earlier work
T2 sequence (P04035 1-888): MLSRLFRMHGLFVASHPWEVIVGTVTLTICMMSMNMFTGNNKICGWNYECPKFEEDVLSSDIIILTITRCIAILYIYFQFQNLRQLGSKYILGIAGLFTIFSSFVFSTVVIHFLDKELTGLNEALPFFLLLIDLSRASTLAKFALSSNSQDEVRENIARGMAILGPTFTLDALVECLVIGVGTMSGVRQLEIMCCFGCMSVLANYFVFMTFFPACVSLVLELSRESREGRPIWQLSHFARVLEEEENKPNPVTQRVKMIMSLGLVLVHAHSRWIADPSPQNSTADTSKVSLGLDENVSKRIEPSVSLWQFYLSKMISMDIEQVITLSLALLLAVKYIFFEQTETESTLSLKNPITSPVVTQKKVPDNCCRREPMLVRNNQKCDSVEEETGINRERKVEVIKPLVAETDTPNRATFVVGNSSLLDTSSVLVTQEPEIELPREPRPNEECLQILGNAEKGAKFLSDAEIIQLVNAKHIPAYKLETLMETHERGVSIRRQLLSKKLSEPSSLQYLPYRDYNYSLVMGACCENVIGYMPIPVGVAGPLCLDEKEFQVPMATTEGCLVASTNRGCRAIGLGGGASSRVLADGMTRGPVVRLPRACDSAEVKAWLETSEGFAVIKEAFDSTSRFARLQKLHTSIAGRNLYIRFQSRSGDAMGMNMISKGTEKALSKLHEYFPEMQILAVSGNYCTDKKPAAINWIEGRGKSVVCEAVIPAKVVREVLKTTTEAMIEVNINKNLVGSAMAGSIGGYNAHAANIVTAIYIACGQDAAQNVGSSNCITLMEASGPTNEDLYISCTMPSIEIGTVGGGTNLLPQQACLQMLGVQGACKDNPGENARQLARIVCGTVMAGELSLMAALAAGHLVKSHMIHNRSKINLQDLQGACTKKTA

[11] = individual patient, 400 mg daily oral
[12] = TE supplemented, 400 mg daily oral
[13] = TE supplemented, 400 mg daily oral, n = 4

- adipose concentration relative to controls [1]: ~10 fold
- Brain vitamin E concentration, 25th percentile [2]: 0.09 nmol/g
- Brain vitamin E concentration, 50th percentile [2]: 0.15 nmol/g
- Brain vitamin E concentration, 75th percentile [2]: 0.17 nmol/g
- Brain vitamin E concentration, mean [2]: 0.13 nmol/g
- concentration in liver tissue relative to that found in adipose [3]: less than 10%
Compound: CC(C)=CCC/C(C)=C/CC/C(C)=C/CC[C@]1(C)CCc2cc(O)cc(C)c2O1 [δTE, d-delta-tocotrienol]

Compound: Cc1c(C)c2c(c(C)c1O)CC[C@@](C)(CCC[C@H](C)CCC[C@H](C)CCCC(C)C)O2 [αTCP, d-alpha-tocopherol]
- Brain vitamin E concentration, 25th percentile [2]: 41.1 nmol/g
- Brain vitamin E concentration, 50th percentile [2]: 43.3 nmol/g
- Brain vitamin E concentration, 75th percentile [2]: 60.0 nmol/g
- Brain vitamin E concentration, mean [2]: 50.5 nmol/g

Compound: Cc1c(C)c2c(c(C)c1O)CC[C@@](C)(CCC[C@H](C)CCC[C@H](C)CCCC(C)C)O2 [TCP, d-alpha-tocopherol]
- participants with a reduction (improvement) in MELD score ([4]; ESLD participants, oral supplementation 400 mg daily): 20%
- MELD score Pre-supplement Intercept ([4]; individual patient awaiting liver transplantation, before supplementation (baseline)): 16.4 (2×) and 15.7 and 16.5 and 16.9
- MELD score Post-supplement Intercept [4, 11]: 14.2 (3×) and 14.0 and 14.4
- MELD score slope % Change (pre vs. post) [4, 11]: 372% and −155% and 1028% and 619% and 598%
- MELD score Post-supplement Slope ([4]; individual patient, 400 mg daily oral, slope multiplied by 10,000, time in days): 483 and −60 and 1139 and 702 and 712
- MELD score Pre-supplement Slope ([4]; individual patient, before supplementation (baseline), slope multiplied by 10,000, time in days): 102 (2×) and 109 and 101 and 98

Compound: CC(C)=CCC/C(C)=C/CC/C(C)=C/CC[C@]1(C)CCc2cc(O)c(C)c(C)c2O1 [γTE, d-gamma-tocotrienol]
- Brain vitamin E concentration, 25th percentile ([5]; TCP supplemented): 0.03 nmol/g
- Brain vitamin E concentration, 50th percentile ([5]; TCP supplemented): 0.05 nmol/g
- Brain vitamin E concentration, 75th percentile ([5]; TCP supplemented): 0.08 nmol/g
- Brain vitamin E concentration, mean ([5]; TCP supplemented): 0.06 nmol/g
- brain concentration, TE supplemented compared with control (cadaveric) brain ([5]; TE 400 mg daily): significantly elevated
- Brain vitamin E concentration, 25th percentile [5, 12]: 0.47 nmol/g
- Brain vitamin E concentration, 50th percentile [5, 12]: 0.70 nmol/g
- Brain vitamin E concentration, 75th percentile [5, 12]: 1.19 nmol/g
- Brain vitamin E concentration, mean [5, 12]: 0.83 nmol/g
- liver concentration, TE supplemented compared with TCP supplemented patients ([6]; 400 mg daily): increased
- Liver vitamin E concentration, 25th percentile [6, 13]: 0.17 nmol/g
- Liver vitamin E concentration, 50th percentile [6, 13]: 0.45 nmol/g
- Liver vitamin E concentration, 75th percentile [6, 13]: 1.1 nmol/g
- Liver vitamin E concentration, mean [6, 13]: 0.61 nmol/g
- Adipose vitamin E concentration, 25th percentile ([7]; TCP supplemented, n = 4): 0.71 nmol/g
- Adipose vitamin E concentration, 50th percentile ([7]; TCP supplemented, n = 4): 1.72 nmol/g
- Adipose vitamin E concentration, 75th percentile ([7]; TCP supplemented, n = 4): 3.21 nmol/g
- Adipose vitamin E concentration, mean ([7]; TCP supplemented, n = 4): 1.96 nmol/g
- adipose concentration relative to controls ([7]; TE supplemented vs controls, P<0.05): ~10 fold
- Adipose vitamin E concentration, 25th percentile ([7]; TE supplemented, n = 5): 12.4 nmol/g
- Adipose vitamin E concentration, 50th percentile ([7]; TE supplemented, n = 5): 17.1 nmol/g
- Adipose vitamin E concentration, 75th percentile ([7]; TE supplemented, n = 5): 23.5 nmol/g
- Adipose vitamin E concentration, mean ([7]; TE supplemented, n = 5): 17.2 nmol/g
- heart muscle level, TE supplemented compared with participants receiving TCP alone ([8]; 400 mg daily): significantly higher
- Heart vitamin E concentration, 25th percentile ([8]; TCP supplemented, n = 3): 0.02 nmol/g
- Heart vitamin E concentration, 50th percentile ([8]; TCP supplemented, n = 3): 0.23 nmol/g
- Heart vitamin E concentration, 75th percentile ([8]; TCP supplemented, n = 3): 0.26 nmol/g
- Heart vitamin E concentration, mean ([8]; TCP supplemented, n = 3): 0.17 nmol/g
- Heart vitamin E concentration, 25th percentile ([8]; TE supplemented, n = 5): 2.07 nmol/g
- Heart vitamin E concentration, 50th percentile ([8]; TE supplemented, n = 5): 6.70 nmol/g
- Heart vitamin E concentration, 75th percentile ([8]; TE supplemented, n = 5): 14.4 nmol/g
- Heart vitamin E concentration, mean ([8]; TE supplemented, n = 5): 8.85 nmol/g
- effect of oral TE supplementation on skin concentration [9]: significantly elevated

- Brain vitamin E concentration, 25th percentile [2]: 0.98 nmol/g
- Brain vitamin E concentration, 50th percentile [2]: 2.51 nmol/g
- Brain vitamin E concentration, 75th percentile [2]: 10.6 nmol/g
- Brain vitamin E concentration, mean [2]: 5.77 nmol/g
Compound: Cc1c(O)cc2c(c1C)O[C@](C)(CCC[C@H](C)CCC[C@H](C)CCCC(C)C)CC2 [γTCP]

Compound: d-alpha-tocotrienol [αTE]
- adipose concentration relative to controls [1]: ~10 fold
- Brain vitamin E concentration, 25th percentile [2]: 0.03 nmol/g
- Brain vitamin E concentration, 50th percentile [2]: 0.04 nmol/g
- Brain vitamin E concentration, 75th percentile [2]: 0.05 nmol/g
- Brain vitamin E concentration, mean [2]: 0.04 nmol/g
- concentration in liver tissue relative to that found in adipose [3]: less than 10%
- affinity of TTP to bind and transport, relative to αTCP [10]: 12%
- effect on activity of HMG-CoA reductase (HMG-CoA reductase): suppresses the activity
- effect of oral TE supplementation on skin concentration [9]: significantly elevated
